Test results from PubChem BioAssay AID328 (DTP/NCI, 2004).
Toxic doses and inconclusive results are not listed. Non-standard residues stand in square brackets, D forms with d. Residues, ends and D or L forms follow the SMILES beside them. ξ: configuration not given here. ξPhe(4-N(CH2CH2Cl)2) = NC(Cc1ccc(N(CCCl)CCCl)cc1)C(=O)O

Tested on: BDF1 mice, P388 leukemia ip, median survival T/C
Assay: NCI In Vivo Anticancer Drug Screen. Data for tumor model P388 Leukemia (intraperitoneal) in B6D2F1 (BDF1) mice
Details: endpoint: median survival time, higher = longer survival
Summary of the method: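 In tumour-bearing mice, survival after compound treatment is set against the vehicle group and given as a quotient.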

[1] = dose: 100.0 mg/kg/injection, schedule: Q04DX003 (ip), vehicle: saline sonified
[2] = dose: 100.0 mg/kg/injection, schedule: Q01DX009 (ip), vehicle: saline
[3] = dose: 50.0 mg/kg/injection, schedule: Q01DX005 (ip), vehicle: saline with Tween-80
[4] = dose: 100.0 mg/kg/injection, schedule: Q01DX005 (ip), vehicle: saline with Tween-80

`CC(C)C1=CC2=CC(=O)C3C(C)(C)CCCC3(C)C2=C(O)C1=O` (stereo not given) was tested, and the T/C (dose: 2.0 mg/kg/injection, schedule: Q01DX010 (ip), vehicle: carboxymethylcellulose (CMC)) was 105 % of control, the T/C (dose: 5.0 mg/kg/injection, schedule: Q01DX010 (ip), vehicle: carboxymethylcellulose (CMC)) was 105 % of control and the T/C (dose: 5.0 mg/kg/injection, schedule: Q01DX010 (ip), vehicle: other) was 115 % of control. The T/C (dose: 10.0 mg/kg/injection, schedule: Q01DX010 (ip), vehicle: carboxymethylcellulose (CMC)) was 100 % of control, the T/C (dose: 10.0 mg/kg/injection, schedule: Q01DX010 (ip), vehicle: other) was 115 % of control and the T/C (dose: 20.0 mg/kg/injection, schedule: Q01DX010 (ip), vehicle: carboxymethylcellulose (CMC)) was 120 % of control.

With `COc1cc(/C=N\NC(C)=O)cc(OC)c1OC` the T/C (dose: 50.0 mg/kg/injection, schedule: Q04DX003 (ip), vehicle: saline with Tween-80) was 100 % of control, the T/C (dose: 100.0 mg/kg/injection, schedule: Q04DX003 (ip), vehicle: saline with Tween-80) was 90 % of control and the T/C (dose: 200.0 mg/kg/injection, schedule: Q04DX003 (ip), vehicle: saline with Tween-80) was 90 % of control.

With `O=C1NC(=O)c2cc([N+](=O)[O-])cc3cccc1c23` the T/C [1] was 91 % of control, the T/C (dose: 200.0 mg/kg/injection, schedule: Q04DX003 (ip), vehicle: saline sonified) was 95 % of control and the T/C (dose: 400.0 mg/kg/injection, schedule: Q04DX003 (ip), vehicle: saline sonified) was 87 % of control.

With `O=C(Cc1ccc([N+](=O)[O-])cc1)c1ccccc1` the T/C (dose: 100.0 mg/kg/injection, schedule: Q04DX003 (ip), vehicle: Klucel (hydroxypropylcellulose) (HPC)) was 112 % of control, the T/C (dose: 200.0 mg/kg/injection, schedule: Q04DX003 (ip), vehicle: Klucel (hydroxypropylcellulose) (HPC)) was 104 % of control and the T/C (dose: 400.0 mg/kg/injection, schedule: Q04DX003 (ip), vehicle: Klucel (hydroxypropylcellulose) (HPC)) was 91 % of control.

In the case of `O=C(Nc1cc(C(F)(F)F)cc(C(F)(F)F)c1)Nc1c(Oc2ccc(Cl)cc2Cl)ccc(Cl)c1S(=O)(=O)O`, the T/C (dose: 50.0 mg/kg/injection, schedule: Q04DX003 (ip), vehicle: saline sonified) is reported as 87 % of control and the T/C [1] is reported as 87 % of control.

With `CCOC(=O)C(Cc1ccc(N(CCCl)CCCl)cc1)NC(=O)C(Cc1ccccc1)NC(=O)C(NC(=O)CNC(=O)C1CCCN1)C(C)C` (stereo not given) (H-PGVF[ξPhe(4-N(CH2CH2Cl)2)]-OEt; configuration not given here) the T/C (dose: 5.0 mg/kg/injection, schedule: Q04DX003 (ip), vehicle: water) was 95 % of control, the T/C (dose: 10.0 mg/kg/injection, schedule: Q04DX003 (ip), vehicle: water) was 100 % of control and the T/C (dose: 20.0 mg/kg/injection, schedule: Q04DX003 (ip), vehicle: water) was 176 % of control. The T/C (dose: 40.0 mg/kg/injection, schedule: Q04DX003 (ip), vehicle: water) was 241 % of control and the T/C (dose: 80.0 mg/kg/injection, schedule: Q04DX003 (ip), vehicle: water) was 265 % of control.

With `COc1ccc(CN(CCO)C(C)=O)cc1` the T/C [2] was 102 % of control, the T/C (dose: 100.0 mg/kg/injection, schedule: Q04DX003 (ip), vehicle: saline) was 100 % of control and the T/C (dose: 200.0 mg/kg/injection, schedule: Q01DX009 (ip), vehicle: saline) was 109 % of control. For the same compound, the T/C (dose: 200.0 mg/kg/injection, schedule: Q04DX003 (ip), vehicle: saline) was 100 % of control, the T/C (dose: 400.0 mg/kg/injection, schedule: Q01DX009 (ip), vehicle: saline) was 115 % of control and the T/C (dose: 400.0 mg/kg/injection, schedule: Q04DX003 (ip), vehicle: saline) was 95 % of control.

With `CSCCCNC(=O)c1csc(-c2csc(CCNC(=O)c3ccccc3)n2)n1` the T/C (dose: 8.0 mg/kg/injection, schedule: Q01DX009 (ip), vehicle: saline) was 100 % of control, the T/C (dose: 16.0 mg/kg/injection, schedule: Q01DX009 (ip), vehicle: saline) was 100 % of control and the T/C (dose: 32.0 mg/kg/injection, schedule: Q01DX009 (ip), vehicle: saline) was 110 % of control. For the same compound, the T/C (dose: 64.0 mg/kg/injection, schedule: Q01DX009 (ip), vehicle: saline) was 120 % of control.

In the case of `COC(=O)c1c([N+](=O)[O-])cccc1[N+](=O)[O-]`, the T/C [3] is reported as 97 % of control, the T/C [4] is reported as 97 % of control and the T/C (dose: 200.0 mg/kg/injection, schedule: Q01DX005 (ip), vehicle: saline with Tween-80) is reported as 94 % of control.

`COc1ccc(C(=O)/C=C/c2ccccc2)c(O)c1CC=C(C)C` (tested in a mixture with another compound) was tested, and the T/C (dose: 3.12 mg/kg/injection, schedule: Q01DX009 (ip), vehicle: Klucel (hydroxypropylcellulose) (HPC)) was 90 % of control, the T/C (dose: 6.25 mg/kg/injection, schedule: Q01DX009 (ip), vehicle: Klucel (hydroxypropylcellulose) (HPC)) was 102 % of control and the T/C (dose: 12.5 mg/kg/injection, schedule: Q01DX009 (ip), vehicle: Klucel (hydroxypropylcellulose) (HPC)) was 107 % of control. The T/C (dose: 25.0 mg/kg/injection, schedule: Q01DX009 (ip), vehicle: Klucel (hydroxypropylcellulose) (HPC)) was 109 % of control, the T/C (dose: 50.0 mg/kg/injection, schedule: Q01DX009 (ip), vehicle: Klucel (hydroxypropylcellulose) (HPC)) was 91 % of control and the T/C (dose: 100.0 mg/kg/injection, schedule: Q01DX009 (ip), vehicle: Klucel (hydroxypropylcellulose) (HPC)) was 92 % of control.

In the case of `COc1ccc(CC2c3cc(OC)c(OC)cc3CCN2C(=O)c2ccccc2)cc1OC` (stereo not given), the T/C [3] is reported as 91 % of control and the T/C [4] is reported as 91 % of control.

In the case of `CSc1ncncc1N`, the T/C (dose: 50.0 mg/kg/injection, schedule: Q01DX009 (ip), vehicle: saline) is reported as 105 % of control and the T/C [2] is reported as 105 % of control.
